Measured values: patent US20140296212A1, “SUBSTITUTED PHENOXYPROPYLCYCLOAMINE DERIVATIVES AS HISTAMINE-3 (H3) RECEPTOR LIGANDS” (CEPHALON, INC., priority 2009, published 2014)
Structures can show the parent of a compound that is named as a salt. Where two headings read alike, the source gives them in different places.

What was measured:
human H3 receptor = molecular target: T1, human H3 receptor (Homo sapiens, UniProt Q9Y5N1); assay: Human H3 radioligand binding ([3H]-N-alpha-methylhistamine, SPA); details: membranes of CHO cells expressing human H3
T1 construct: expressed in transfected cells
Description: Cell pellets were resuspended in 5 mM Tris-HCl, pH 7.5 with 5 nM EDTA and a cocktail of protease inhibitors (Complete Protease Inhibitor Tablets, Roche Diagnostics). Cells were disrupted using a polytron cell homogenizer and the suspension was centrifuged at 1000×g for 10 minutes at 4° C. The pellet was discarded and the supernatant centrifuged at 40,000×g for 30 min at 4° C. This membrane pellet was washed in membrane buffer containing 50 mM Tris-HCl, pH 7.5 with 0.6 mM EDTA, 5 mM MgCl2 and protease inhibitors, recentrifuged as above and the final pellet resuspended in membrane buffer plus 250 mM sucrose and frozen at −80° C.
(§1) Membranes were resuspended in 50 mM Tris HCl (pH 7.4), 5 mM MgCl2, 0.1% BSA. The membrane suspensions (10 μg protein per well) were incubated in a 96 well microtiter plate with [^3H]-N-alpha-methylhistamine (approximately 1 nM final concentration), test compounds at various concentrations (0.01 nM-30 μM) and scintillation proximity beads (Perkin Elmer, FlashBlueGPCR Scintillating Beads) in a final volume of 80 μl for 4 hours at room temperature, protected from light. Non-specific binding was determined in the presence of 10 μM clobenpropit. Radioligand bound to receptor, and therefore in proximity to the scintillation beads, was measured using a MicroBeta scintillation counter.

[1] = molecular target: T2, rat histamine H3 receptor (Rattus norvegicus, UniProt Q9QYN8); assay: Rat H3 radioligand binding ([3H]-N-alpha-methylhistamine, SPA)
T2 construct: encoding the entire 445-amino-acid rat histamine H3 receptor; expressed in transfected cells
Source text: The rat H3 receptor cDNA was PCR amplified from reverse-transcribed RNA pooled from rat thalamus, hypothalamus, striatum and prefrontal cortex with a sequence corresponding to by #338-1672 of Genbank file #NM_053506, encoding the entire 445-amino-acid rat histamine H3 receptor. This was engineered into the pIRES-neo3 mammalian expression vector, which was stably transfected into the CHO-A3 cell line (Euroscreen, Belgium), followed by clonal selection by limiting dilution. Cells were harvested and cell pellets were frozen (−80° C.). Cell pellets were resuspended in 5 mM Tris-HCl, pH 7.5 with 5 nM EDTA and a cocktail of protease inhibitors (Complete Protease Inhibitor Tablets, Roche Diagnostics). Cells were disrupted using a polytron cell homogenizer and the suspension was centrifuged at 1000×g for 10 minutes at 4° C. The pellet was discarded and the supernatant centrifuged at 40,000×g for 30 min at 4° C. This membrane pellet was washed in membrane buffer containing 50 mM Tris-HCl, pH 7.5 with 0.6 mM EDTA, 5 mM MgCl2 and protease inhibitors, recentrifuged as above and the final pellet resuspended in membrane buffer plus 250 mM sucrose and frozen at −80° C.
as §1

[2] = membranes of CHO-A3 cells expressing rat H3, [3H]-N-alpha-methylhistamine, read-out: Rat H3 Ki

T1 sequence (Q9Y5N1 whole entry): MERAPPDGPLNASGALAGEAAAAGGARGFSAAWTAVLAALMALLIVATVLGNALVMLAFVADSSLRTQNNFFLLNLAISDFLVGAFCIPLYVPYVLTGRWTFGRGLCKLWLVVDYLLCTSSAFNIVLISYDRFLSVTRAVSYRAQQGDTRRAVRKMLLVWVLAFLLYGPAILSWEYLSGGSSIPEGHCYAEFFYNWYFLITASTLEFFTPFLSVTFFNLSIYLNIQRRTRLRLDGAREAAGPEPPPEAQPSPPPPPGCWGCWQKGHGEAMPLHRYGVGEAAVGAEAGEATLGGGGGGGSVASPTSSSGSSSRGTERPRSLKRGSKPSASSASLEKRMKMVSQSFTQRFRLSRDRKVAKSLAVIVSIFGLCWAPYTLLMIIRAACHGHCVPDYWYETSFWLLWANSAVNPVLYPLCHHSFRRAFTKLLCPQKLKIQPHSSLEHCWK
T2 sequence (Q9QYN8 whole entry): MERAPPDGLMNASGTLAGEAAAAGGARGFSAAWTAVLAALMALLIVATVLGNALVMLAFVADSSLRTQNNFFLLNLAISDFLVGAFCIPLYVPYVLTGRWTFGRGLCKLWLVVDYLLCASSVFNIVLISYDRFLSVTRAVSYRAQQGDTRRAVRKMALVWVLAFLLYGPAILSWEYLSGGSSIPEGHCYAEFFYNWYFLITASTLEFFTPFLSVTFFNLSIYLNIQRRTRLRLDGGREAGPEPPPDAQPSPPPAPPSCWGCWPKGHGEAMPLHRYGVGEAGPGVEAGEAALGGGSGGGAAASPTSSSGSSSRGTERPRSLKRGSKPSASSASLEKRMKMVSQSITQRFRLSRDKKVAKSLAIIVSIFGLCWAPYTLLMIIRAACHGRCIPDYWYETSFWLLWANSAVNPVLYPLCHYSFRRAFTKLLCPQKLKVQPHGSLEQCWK

| SMILES | melting point | Ki (human H3 receptor) | Ki [1] | Ki [1, 2] |
| --- | --- | --- | --- | --- |
| C[C@@H]1CCCN1CCCOc1ccc(C(=O)C(C)(C)N2CCOCC2)cc1 (as salt: fumaric acid salt) [Example 54] | 45 to 50 °C |  |  |  |
| C[C@@H]1CCCN1CCCOc1ccc(C(=O)CN2CCN(C(=O)c3ccccc3)CC2)c(F)c1 (as salt: fumaric acid salt) [Example 103, 2-(4-Benzoyl-piperazin-1-yl)-1-{2-fluoro-4-[3-((R)-2-methyl-pyrrolidin-1-yl)-propoxy]-phenyl}-ethanone] | 98 to 101 °C |  |  |  |
| CC(C)N1CCC(Oc2ccc(C(=O)CN3CCOCC3)cc2)CC1 (as salt: hydrochloride) [Example 45, 1-[4-(1-Isopropyl-piperidin-4-yloxy)-phenyl]-2-morpholin-4-yl-ethanone] | 296 to 298 °C |  |  |  |
| CC(C(=O)c1ccc(OCCCN2CCCCC2)cc1)N1CCCCC1 (stereo not shown) [Example 19, 2-Piperidin-1-yl-1-[4-(3-piperidin-1-yl-propoxy)-phenyl]-propan-1-one] | > 240 °C | 0.1 to 100 nM |  |  |
| CC(C(=O)c1ccc(OCCCN2CCC[C@@H]2C)cc1)N1CCCCC1 (stereo partly drawn) [Example 20, 1-{4-[3-((S)-2-Methyl-pyrrolidin-1-yl)-propoxy]-phenyl}-2-piperidin-1-yl-propan-1-one] | > 230 °C | 0.1 to 100 nM |  |  |
| CC(C(=O)c1ccc(OCCCN2CCC[C@H]2C)cc1)N1CCOCC1 (stereo partly drawn) [Example 37, 1-{4-[3-((R)-2-Methyl-pyrrolidin-1-yl)-propoxy]-phenyl}-2-morpholin-4-yl-propan-1-one] | 231 °C | 0.1 to 100 nM | 101 to 500 nM |  |
| C[C@@H]1CCCN1CCCOc1ccc(C(=O)CN2CCC(F)(F)CC2)cc1 [Example 44, 2-(4,4-Difluoro-piperidin-1-yl)-1-{4-[3-((R)-2-methyl-pyrrolidin-1-yl)-propoxy]-phenyl}-ethanone] | 127 to 140 °C | 0.1 to 100 nM |  | 0.1 to 100 nM |
| O=C(CN1CCOCC1)c1ccc(OCCCN2Cc3ccccc3C2)cc1 [Example 46, 1-{4-[3-(1,3-Dihydro-isoindol-2-yl)-propoxy)-phenyl}-2-morpholin-4-yl-ethanone] | 139 to 139.5 °C | > 1000 nM |  |  |
| CC(C(=O)c1ccc(OCCCN2CCOCC2)cc1)N1CCOCC1 (stereo not shown) [Example 48, 2-Morpholin-4-yl-1-[4-(3-morpholin-4-yl-propoxy)-phenyl]-propan-1-one] | 258 °C | > 1000 nM |  |  |
| CC(=O)N1CCN(CCCOc2ccc(C(=O)CN3CCOCC3)cc2)CC1 [Example 49, 1-{4-[3-(4-Acetyl-piperazin-1-yl)-propoxy]-phenyl}-2-morpholin-4-yl-ethanone] | 247 °C | > 1000 nM |  |  |
| CC(=O)N1CCN(CCCOc2ccc(C(=O)C(C)N3CCOCC3)cc2)CC1 (stereo not shown) [Example 50, 1-{4-[3-(4-Acetyl-piperazin-1-yl)-propoxy]-phenyl}-2-morpholin-4-yl-propan-1-one] | 240 °C | > 1000 nM |  |  |
| O=C(CN1CCOCC1)c1ccc(OCCCN2CCN3CCC[C@H]3C2)cc1 [Example 51, 1-{4-[(S)-3-(Hexahydro-pyrrolo[1,2-a]pyrazin-2-yl)-propoxy)-phenyl}-2-morpholin-4-yl-ethanone] | 238 °C | > 1000 nM |  |  |
| CC(C)N1CCC(Oc2ccc(C(=O)CN3CCCC(F)(F)C3)cc2)CC1 [Example 53, 2-(3,3-Difluoro-piperidin-1-yl)-1-[4-(1-isopropyl-piperidin-4-yloxy)-phenyl]-ethanone] | 160 to 165 °C (dec.) | 0.1 to 100 nM |  | 101 to 500 nM |
| C[C@@H]1CCCN1CCCOc1ccc(C(=O)CN2CCCC(C)(C)C2)cc1 [Example 55, 2-(3,3-Dimethyl-piperidin-1-yl)-1-{4-[3-((R)-2-methyl-pyrrolidin-1-yl)-propoxy]-phenyl}-ethanone] | 108 to 120 °C | 0.1 to 100 nM |  | 0.1 to 100 nM |
| CC(C(=O)c1ccc(OCCCN2CCC(F)(F)C2)cc1)N1CCOCC1 (stereo not shown) [Example 56, 1-{4-[3-(3,3-Difluoro-pyrrolidin-1-yl)-propoxy]-phenyl}-2-morpholin-4-yl-propan-1-one] | 254 °C | > 1000 nM |  |  |
| O=C1CN(CCCOc2ccc(C(=O)CN3CCOCC3)cc2)CCN1 [Example 57, 4-{3-[4-(2-Morpholin-4-yl-acetyl)-phenoxy]-propyl}-piperazin-2-one] | 230 °C | > 1000 nM |  | > 1000 nM |
| CC1CCC(C)N1CC(=O)c1ccc(OCCCN2CCC[C@H]2C)cc1 (stereo partly drawn) [Example 58, 2-(2,5-Dimethyl-pyrrolidin-1-yl)-1-{4-[3-((R)-2-methyl-pyrrolidin-1-yl)-propoxy]-phenyl}-ethanone] | 100 to 106 °C | 0.1 to 100 nM |  | 0.1 to 100 nM |
| CS(=O)(=O)N1CCN(CCCOc2ccc(C(=O)CN3CCOCC3)cc2)CC1 [Example 59, 1-{4-[3-(4-Methanesulfonyl-piperazin-1-yl)-propoxy]-phenyl}-2-morpholin-4-yl-ethanone] | 246 to 248 °C | > 1000 nM |  | > 1000 nM |
| CC1CCCC(C)N1CC(=O)c1ccc(OCCCN2CCC[C@H]2C)cc1 (stereo partly drawn) [Example 61, 2-(2,6-Dimethyl-piperidin-1-yl)-1-{4-[3-((R)-2-methyl-pyrrolidin-1-yl)-propoxy]-phenyl}-ethanone] | 127 to 135 °C | 0.1 to 100 nM |  | 0.1 to 100 nM |
| O=C(CN1CCOCC1)c1ccc(OCCCN2CCN3CCCCC3C2)cc1 (stereo not shown) [Example 62, 2-Morpholin-4-yl-1-{4-[3-(octahydro-pyrido[1,2-a]pyrazin-2-yl)-propoxy]-phenyl}-ethanone] | 251 °C | 501 to 1000 nM |  | > 1000 nM |
| CC(=O)N1CCN(CC(=O)c2ccc(OCCCN3CCC[C@H]3C)cc2)CC1 [Example 63, 2-(4-Acetyl-piperazin-1-yl)-1-{4-[3-((R)-2-methyl-pyrrolidin-1-yl)-propoxy]-phenyl}-ethanone] | 125 to 133 °C | 0.1 to 100 nM |  | 0.1 to 100 nM |
| O=C(CN1CCOCC1)c1ccc(OCCCN2CCCCC2)cc1F [Example 65, 1-[2-Fluoro-4-(3-piperidin-1-yl-propoxy)-phenyl]-2-morpholin-4-yl-ethanone] | 170 to 172 °C | 101 to 500 nM |  | > 1000 nM |
| C[C@@H]1CCCN1CCCOc1ccc(C(=O)CN2CCN(S(C)(=O)=O)CC2)cc1 [Example 66, 2-(4-Methanesulfonyl-piperazin-1-yl)-1-{4-[3-((R)-2-methyl-pyrrolidin-1-yl)-propoxy]-phenyl}-ethanone] | 120 to 126 °C | 0.1 to 100 nM |  | 0.1 to 100 nM |
| C[C@@H]1CCCN1CCCOc1ccc(C(=O)CN2CCN(S(=O)(=O)c3ccccc3)CC2)cc1 [Example 69, 2-(4-Benzenesulfonyl-piperazin-1-yl)-1-{4-[3-((R)-2-methyl-pyrrolidin-1-yl)-propoxy]-phenyl}-ethanone] | 124 to 135 °C | 0.1 to 100 nM |  | 0.1 to 100 nM |
| C[C@@H]1CCCN1CCCOc1ccc(C(=O)CN2CCN(C(=O)N3CCOCC3)CC2)cc1 [Example 70, 1-{4-[3-((R)-2-Methyl-pyrrolidin-1-yl)-propoxy]-phenyl}-2-[4-(morpholine-4-carbonyl)-piperazin-1-yl]-ethanone] | 116 to 125 °C | 0.1 to 100 nM |  | 0.1 to 100 nM |
| COC[C@H]1CCCN1CCCOc1ccc(C(=O)CN2CCOCC2)cc1 [Example 71, 1-{4-[3-((R)-2-Methoxymethyl-pyrrolidin-1-yl)-propoxy]-phenyl}-2-morpholin-4-yl-ethanone] | > 200 °C (dec.) | > 1000 nM |  | > 1000 nM |
| CC(C)OC(=O)N1CCN(CC(=O)c2ccc(OCCCN3CCC[C@H]3C)cc2)CC1 [Example 158, 4-(2-{4-[3-((R)-2-Methyl-pyrrolidin-1-yl)-propoxy]-phenyl}-2-oxo-ethyl)-piperazine-1-carboxylic acid isopropyl ester] | 222 to 224 °C |  |  |  |
| C[C@@H]1CCCN1CCCOc1ccc(/C(CN2CCOC(c3ccccc3)C2)=N/OC(C)(C)C)cc1 (stereo partly shown) [Example 168] |  | 0.1 to 100 nM |  | 101 to 500 nM |
